Experiments:
NCI-H1975 = test: Cytotoxicity against human NCI-H1975 cells assessed as decrease in cell viability incubated for 72 hrs by CellTiter-Glo assay; type: functional, cell-based; details: NCI-H1975, 72 h
[1] = target: T1, Myc proto-oncogene protein (Homo sapiens, UniProt P01106); test: Inhibition of Myc (unknown origin) expressed in HEK293T cells incubated for 16 hrs by firefly/renilla luciferase reporter gene assay; type: cell-based
[2] = target: T1, Myc proto-oncogene protein; test: Binding affinity to Myc in cell lysates (unknown origin) assessed as c-Myc levels at 1 uM incubated using compound 19 beads by Western blotting based pull down assay relative to control; type: subcellular; details: Lysate
[3] = target: T1, Myc proto-oncogene protein; test: Binding affinity to Myc in cell lysates (unknown origin) assessed as c-Myc levels at 5 uM incubated using compound 55 beads by Western blotting based pull down assay relative to control; type: subcellular; details: Lysate
[4] = Cytotoxicity against human KLP1 cells assessed as decrease in cell viability incubated for 72 hrs by CellTiter-Glo assay; type: functional, cell-based
[5] = Cytotoxicity against human SNUC5 cells assessed as decrease in cell viability incubated for 72 hrs by CellTiter-Glo assay; type: functional, cell-based
HeLa = test: Cytotoxicity against human HeLa cells assessed as decrease in cell viability incubated for 72 hrs by CellTiter-Glo assay; type: functional, cell-based
NAMALVA = test: Cytotoxicity against human NAMALWA cells assessed as decrease in cell viability incubated for 72 hrs by CellTiter-Glo assay; type: functional, cell-based
[6] = target: T1, Myc proto-oncogene protein; test: Binding affinity to Myc in cell lysates (unknown origin) assessed as c-Myc levels at 5 uM incubated using compound 19 beads by Western blotting based pull down assay relative to control; type: subcellular; details: Lysate
Lymphoma cell line = test: Cytotoxicity against mouse E-mu-Myc lymphoma cells assessed as decrease in cell viability incubated for 72 hrs by CellTiter-Glo assay; type: functional, cell-based

T1 sequence (P01106 whole entry): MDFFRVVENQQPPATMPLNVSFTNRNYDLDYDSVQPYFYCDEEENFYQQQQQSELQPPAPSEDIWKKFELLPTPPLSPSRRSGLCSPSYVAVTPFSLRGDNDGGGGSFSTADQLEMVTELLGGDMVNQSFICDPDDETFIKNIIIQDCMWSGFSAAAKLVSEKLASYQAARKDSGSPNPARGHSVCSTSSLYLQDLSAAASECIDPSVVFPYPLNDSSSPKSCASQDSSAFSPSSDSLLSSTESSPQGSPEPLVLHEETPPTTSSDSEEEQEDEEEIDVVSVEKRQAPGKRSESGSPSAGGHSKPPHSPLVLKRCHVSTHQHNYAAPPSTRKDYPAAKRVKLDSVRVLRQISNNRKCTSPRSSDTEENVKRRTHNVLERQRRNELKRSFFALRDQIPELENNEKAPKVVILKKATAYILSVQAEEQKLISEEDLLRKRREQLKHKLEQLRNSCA

## O=C(CCCC[C@@H]1SC[C@@H]2NC(=O)N[C@@H]21)NCCCN1C(=O)S/C(=C\c2ccc(Sc3nc4ccccc4[nH]3)o2)C1=O
NCI-H1975
  IC50: > 50 µM

## O=C(O)CN1C(=O)S/C(=C\c2ccc(Sc3nc4ccccc4[nH]3)o2)C1=O
[1]
  IC50: Not Active

## O=C(O)c1ccc(Sc2nc3ccccc3[nH]2)o1
[1]
  IC50: Not Active

## CC(C)N1C(=O)S/C(=C\c2ccc(Sc3nc4ccccc4[nH]3)o2)C1=O
[2]
  Activity: 91%
[3]
  Activity: 52%
[4]
  IC50: 4.64 µM
[5]
  IC50: 11.7 µM
HeLa
  IC50: 3.32 µM
NAMALVA
  IC50: 17.3 to 21.1 µM
[6]
  Activity: 73 to 84%
NCI-H1975
  IC50: 2.71 to 24.9 µM

## CC(C)N1C(=O)S/C(=C\c2ccc(-c3nc4ccccc4[nH]3)o2)C1=O
Lymphoma cell line
  IC50: > 50 µM
NAMALVA
  IC50: 20.1 µM
NCI-H1975
  IC50: 45.3 µM

## O=C(c1ccc(Sc2nc3ccccc3[nH]2)o1)N1CCOCC1
[1]
  IC50: Not Active

## COC(=O)c1ccc(Sc2nc3ccccc3[nH]2)o1
[1]
  IC50: Not Active

## O=C1NC(=O)C(=Cc2ccc(Sc3nc4ccccc4[nH]3)o2)C(=O)N1
[1]
  IC50: Not Active

Reference: ChEMBL document CHEMBL4418492, “Myc modulators and uses thereof” (2018)
